Results as given in US20250099434A1, “METHODS OF TREATING AMYLOID RELATED BRAIN DISORDERS USING NOVEL COMPOUNDS AND ANTIBODIES” (T3D Therapeutics, Inc., priority 2022, published 2025).

Molecular target: T1, human PPARδ (Homo sapiens, UniProt Q03181)
T1 construct: expressed in transfected cells; host or cells: CV-1 cells
T1 sequence (Q03181 1-441): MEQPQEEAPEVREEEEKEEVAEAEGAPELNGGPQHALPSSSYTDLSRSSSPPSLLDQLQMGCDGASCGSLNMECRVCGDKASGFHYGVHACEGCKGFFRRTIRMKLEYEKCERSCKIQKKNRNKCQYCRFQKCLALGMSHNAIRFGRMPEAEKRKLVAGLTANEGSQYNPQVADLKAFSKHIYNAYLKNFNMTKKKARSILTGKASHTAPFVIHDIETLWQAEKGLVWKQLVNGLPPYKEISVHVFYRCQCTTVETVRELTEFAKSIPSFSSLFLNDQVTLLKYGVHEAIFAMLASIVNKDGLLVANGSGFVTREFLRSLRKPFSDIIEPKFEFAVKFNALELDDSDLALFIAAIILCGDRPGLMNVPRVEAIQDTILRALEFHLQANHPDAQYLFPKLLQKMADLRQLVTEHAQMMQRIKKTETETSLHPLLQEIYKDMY
Experiment: Human PPAR activation, transient transfection in CV-1 cells (δ subtype)
Assay type: cell-based

## CCc1oc(-c2ccc(OC)cc2)nc1CCOc1ccc2c(c1)CC[C@H]2CC(=O)[O-].[Na+] [Example 11, Sodium (S)-2-(5-(2-(5-ethyl-2-(4-methoxyphenyl)oxazol-4-yl)ethoxy)-2,3-dihydro-1H-inden-1-yl)acetate]
  Peak effect PPARδ: 17.68
  greater potency in activating human PPARδ subtype over human PPARγ subtype: 15 fold
